According to US8148355B2, “Phophylactic and therapeutic use of hydroxysteroids” (Hunter-Fleming Limited, priority 2001, dated 2012):
Where “and” joins values, the source holds several entries; their conditions need not be identical. Equal values may be shown once.

Key:
[1] = tested on: Organotypic hippocampal slice cultures (CA1 cell layer); assay: Hypoxic neuronal damage in organotypic hippocampal slice cultures (PI fluorescence in CA1); type: cell-based, Wistar rat; conditions: for effect on hypoxic damage in CA1 (in words): pre-
Description: Protocol For Studying Hypoxic Neuronal Damage
Organotypic hippocampal slice cultures were prepared using the basic method of Pringle et al (1996, 1997) modified as follows:
Wistar rat pups (8-11 days old) were decapitated and the hippocampus rapidly dissected into ice-cold Gey's balanced salt solution supplemented with 4.5 mg/ml glucose. Slices were separated and plated onto Millicell CM culture inserts (4 per well) and maintained at 37° C./5% CO2 for 14 days. Maintenance medium consisted of 25% heat-inactivated horse serum, 25% Hank's balanced salt solution (HBSS) and 50% minimum essential medium with added Earle's salts (MEM) supplemented with 1 mM glutamine and 4.5 mg/ml glucose. Medium was changed every 3-4 days.
Experimental hypoxia was performed as described previously (Pringle et al., 1996; 1997). Briefly, cultures were transferred to serum free medium (SFM-75% MEM, 25% HBSS supplemented with 1 mM glutamine and 4.5 mg/ml glucose) containing 5 μg/ml of the fluorescent exclusion dye propidium iodide (PI). Cultures were allowed to equilibrate in SFM for 60 minutes prior to imaging. PI fluorescence was detected using a Leica inverted microscope fitted with a rhodamine filter set. Any cultures in which PI fluorescence was detected at this stage were excluded from further study. Hypoxia was induced by transferring cultures to SFM (+PI) which had been saturated with 95% N2/5% CO2. Culture plates (without lids) were then sealed into an airtight chamber in which the atmosphere was saturated with 95% N2/5% CO2 by continuously blowing through gas at 10 liters/minute for ten minutes before being sealed and placed in the incubator for 170 minutes (total time of hypoxia was therefore 180 minutes). At the end of the hypoxic period cultures were returned to normoxic SFM containing PI and placed back in the incubator for 24 hours.
Neuronal damage was assessed as described previously (Pringle et al., 1996; 1997) using either NIH Image 1.60 running on an Apple IIsi computer or OpenLab 2.1 (Improvision) running on a Macintosh G4/400. Images were captured using a monochrome camera and saved onto optical disk for offline analysis. Light transmission images were captured prior to the addition of drugs, and PI fluorescence images recorded at the end of the 24-hour post-hypoxia recovery period. The area of the CA1 cell layer was determined from the transmission image. The area of PI fluorescence in CA1 was measured using the density slice function within NIH Image or OpenLab, and neuronal damage expressed as the percentage of the CA1 in which PI fluorescence was detected above background.
Steroid compounds were prepared by making an initial 1 mg/ml solution in ethanol and further diluting down in SFM. Compounds were added to the cultures for 45 minutes prior to hypoxia, during the hypoxic episode and during the post-hypoxic recovery period. Control experiments consisted of cultures treated with vehicle alone.

[2] = tested on: Langendorf perfused male rat hearts; assay: Cardioprotective effect in Langendorf perfused rat hearts (regional ischaemia/reperfusion, infarct size); set-up: species or system Wistar rats; conditions: 100 nM in perfusate, 30 min regional ischaemia, 120 min reperfusion
Description: The study was designed to test the potential anti-ischaemic and cardioprotective effect of 7β-OH EPIA in Langendorf perfused male rat hearts. The end point for evaluation of protection in this model is infarct size (protection against lethal injury, cell death). The infarct size model used is based on a standardised ischaemic insult followed by reperfusion. In the current study, treatment was added ex vivo (to the perfusion solution of the isolated heart) for 30 minutes prior to infarction and continued through 30 minutes regional ischaemia (infarction) and 120 minutes of reperfusion. Based on results from pilot studies, a concentration of 100 nM was used and compared to vehicle treated hearts. The drug was dissolved in DMSO (vehicle) and the final concentration of DMSO in the perfusion solution was 1:10^−6.
Animals were housed in the animal department of the University of Tromsø and treated according to the guidelines formulated by the European Convention for the protection of vertebrate animals used for experimental or other purposes. Supply of Wistar rats were from Harland (The Netherlands), and the rats stayed in the animal department for one week before experiments were started. Animal weight was restricted to 240-380 g, and only male hearts were used. This corresponds to age 60-120 days. […]
The perfusion pressure was 100 mm H2O. […] Heart rate was calculated from pressure recordings. […]

[3] = tested on: hippocampal CA1 pyramidal cells; assay: Global cerebral ischaemia in rats, 4 vessel occlusion (intact CA1 neurons, Nissl staining); type: in vivo, male Wistar rats
Description: Cerebral ischaemia was induced by four-vessel-occlusion (4VO) in male Wistar rats (250-280 g). Both vertebral arteries were occluded by electrocauterization in pentobarbital anaesthesia (60 mg/kg i.p.). The animals were allowed to recover for 24 hours with free access to water but not food. The next day the carotid arteries were exposed under 2% halothane in 30% oxygen/70% nitrous oxide anaesthesia and were occluded for 10 minutes using microvascular clamps. Subsequently, both clamps were removed and both arteries were inspected for immediate reperfusion. During the operation and the following 3 hours normothermia of the animals (37.5±0.5° C.) was maintained by using a thermostatically controlled heating blanket connected to a rectal thermometer. For control, in sham-operated animals both vertebral arteries were cauterised in pentobarbital anaesthesia and both common carotid arteries were exposed but not clamped under 2% halothane in 30% oxygen/70% nitrous oxide anaesthesia the following day. The wound was treated with lidocaine gel and then sutured. The animals were kept under a heating lamp at 30° C. environmental temperature until they regained consciousness.
Seven groups of animals were investigated: • 1. (n=8) steroid compound, 7β-OH EPIA (0.1 mg/kg, i.v. via tail vein, three injections: 15 minutes prior to the induction of ischaemia, during ischaemia and 5 minutes after reperfusion); • 2. (n=8) steroid compound, 7β-OH EPIA (0.3 mg/kg, i.v. three injections as described in 1.); • 3. (n=8) steroid compound, 7β-OH EPIA (1 mg/kg, i.v., three injections as described in 1.); • 4. (n=8) NBQX (disodium salt, because more water soluble) as reference substance and positive control (TOCRIS, Germany, 30 mg/kg, i.p., three injections as described in 1.); • 5. (n=8) received vehicle (0.9% NaCl, containing 100 μl Ethanol) three injections as described in 1.); • 6. (n=8) ischaemia alone; • 7. (n=8) sham operated controls.
The substances were dissolved in 100 μl ethanol and finally diluted with 0.9% NaCl.
After a survival time of 7 days after ischaemia, all animals were perfusion fixed tanscardially with 4% paraformaldehyde. The brains were then removed carefully and postfixed in the same fixative for 2 hours. After cryoprotection in 30% sucrose, the brains were rapidly frozen in isopentane and stored at −80° C. Twenty-micrometer cryostat sections comprising the hippocampal formation were Nissl stained with toluidine blue or NeuroTrace fluorescence.
The severity of neuronal damage in the hippocampal CA1 region after ischaemia was evaluated by the number of surviving neurons using Nissl staining. The mean number of morphologically intact neurons per 400 μm length was calculated in CA1 region for each group. Cell counting was performed in 3-5 serial sections per animal and 6 times 400 μm CA1 area per section using a light microscope equipped with a 20× objective. The data were statistically analysed by paired Student's t-test. Data were presented as mean±SEM.
Morphological intact hippocampal CA1 neurons were characterised by Nissl staining (toluidine blue and NeuroTrace) with the following criteria: clear shape of a neuronal perikarya, large nucleus with a positive labelled nucleolus, a small cytoplasm zone around the nucleus with positive Nissl staining, indicating the intact rough endoplasmic reticulum with ribosomes and therefore the intact protein synthesis machinery.

[4] = Experiment 1, 100 nM, during and post-hypoxia
[5] = Experiment 1, 100 nM, present pre-, during and post-hypoxia, control hypoxia 25.5 ± 6.4
[6] = 30 mg/kg, three injections, 10 min global ischaemia, 7 days survival

In the case of `C[C@]12CC[C@H](O)C[C@@H]1C[C@@H](O)[C@@H]1[C@@H]2CC[C@]2(C)C(=O)CC[C@@H]12` [7αOH-EPIA, 7α-Hydroxy-EPIA], the “effect on hypoxic damage in CA1 (in words)” value [1, 4] was “significantly reduced” and the “% Damage in CA1” value [1, 5] was 4.0 ± 2.9 %.
In the case of `C[C@]12CC[C@H](O)CC1=C[C@H](O)[C@@H]1[C@@H]2CC[C@]2(C)C(=O)CC[C@@H]12` [7βOH-DHEA, 7β-hydroxy-DHEA], the “effect on neuronal damage (in words)” value ([1]; Experiment 3, 100 nM pre-, during and post-hypoxia) was “a large, highly significant, reduction in neuronal damage” and the “% Damage in CA1” value ([1]; Experiment 3, 100 nM pre-, during and post-hypoxia, control hypoxia 29.0 ± 6.2) was 4.1 ± 1.9 %.
With `C[C@]12CC[C@H](O)C[C@@H]1C[C@H](O)[C@@H]1[C@@H]2CC[C@]2(C)C(=O)CC[C@@H]12` [7βOH-EPIA, 7β-hydroxyepiandrosterone] the Infarct volume ([2]; control 38.9) was 14.1, the “Infarct/risk zone (%)” value ([2]; control 46.3) was 14.4+/−1.22% and 14.4% and the “effect on hypoxic damage in CA1 (in words)” value [1, 4] was “significantly reduced”. For the same compound, the “% Damage in CA1” value [1, 5] was 9.0 ± 4.7 %, the “neuroprotection against hypoxia (in words)” value ([1]; Experiment 2, 1 nM) was “activity was lost” and the “% Damage in CA1” value ([1]; Experiment 2, 1 nM, control hypoxia 31.9 ± 4.7) was 20.6 ± 7.2%. For the same compound, the “neuroprotection against hypoxia (in words)” value ([1]; Experiment 2, 10 nM and 100 nM) was “significantly neuroprotective”, the “% Damage in CA1” value ([1]; Experiment 2, 10 nM, control hypoxia 31.9 ± 4.7) was 11.9 ± 4.7 % and the “% Damage in CA1” value ([1]; Experiment 2, 100 nM, control hypoxia 31.9 ± 4.7) was 14.3 ± 5.0 %. For the same compound, the “neuroprotective effect, t-test analysis (in words)” value ([3]; 0.1 mg/kg (p=0.01) and 0.3 mg/kg (p=0.0008)) was “highly significant neuroprotective effect”, the “neuroprotective effect on CA1 pyramidal cells compared to the sham operated group” value ([3]; 0.1 mg/kg i.v., three injections, 10 min global ischaemia, 7 days survival) was 74.8% and the “neuroprotective effect on CA1 pyramidal cells compared to the sham operated group” value ([3]; 0.3 mg/kg i.v., three injections, 10 min global ischaemia, 7 days survival) was 83.9%. The “neuroprotection of CA1 pyramidal cells (in words)” value ([3]; 1.0 mg/kg i.v., three injections) was “only a tendency to neuroprotection, but the effect was not significant” and the “behavioural abnormalities of the animals” value ([3]; injected i.v. prior, during and after ischaemia) was “never observed any behavioural abnormalities”.
With `NS(=O)(=O)c1cccc2c1c([N+](=O)[O-])cc1nc(O)c(O)nc12` [NBQX, 2,3-dihydroxy-6-nitro-7-sulfamoyl-benzo(F)quinoxaline, reference compound] the “neuroprotection in CA1 pyramidal cells compared to the ischaemia group (in words)” value ([3]; 30 mg/kg, three injections) was “significant (p=0.03) neuroprotection”, the “neuroprotection compared to the ischaemia alone” value [3, 6] was 47.5% and the “protective effect compared to the sham operated animals” value [3, 6] was 68.5%.
